“And” between values parts separate entries of the source, which are not always exact repeats. Equal entries are not always repeated. Toxic doses and inconclusive results are not listed.
Tested on: CD2F1 mice, L1210 leukemia ip, survival T/C
Assay: NCI In Vivo Anticancer Drug Screen. Data for tumor model L1210 Leukemia (intraperitoneal) in CD2F1 (CDF1) mice
Details: higher = longer survival
Procedure, shortened: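 Activity against a transplanted murine tumor was judged by comparing the compound group with a vehicle group. The outcome in the treated animals was divided by that in the controls.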

[1] = endpoint: mean survival time, dose: 50.0 mg/kg/injection, schedule: Q01DX009 (ip), vehicle: saline with Tween-80
[2] = endpoint: mean survival time, dose: 100.0 mg/kg/injection, schedule: Q01DX001 (ip), vehicle: saline with Tween-80
[3] = endpoint: mean survival time, dose: 100.0 mg/kg/injection, schedule: Q01DX009 (ip), vehicle: saline with Tween-80
[4] = endpoint: mean survival time, dose: 200.0 mg/kg/injection, schedule: Q01DX001 (ip), vehicle: saline with Tween-80
[5] = endpoint: mean survival time, dose: 100.0 mg/kg/injection, schedule: Q04DX003 (ip), vehicle: saline with Tween-80
[6] = endpoint: mean survival time, dose: 200.0 mg/kg/injection, schedule: Q04DX003 (ip), vehicle: saline with Tween-80
[7] = endpoint: mean survival time, dose: 400.0 mg/kg/injection, schedule: Q04DX003 (ip), vehicle: saline with Tween-80
[8] = endpoint: mean survival time, dose: 100.0 mg/kg/injection, schedule: Q01DX001 (ip), vehicle: saline
[9] = endpoint: mean survival time, dose: 200.0 mg/kg/injection, schedule: Q01DX001 (ip), vehicle: saline
[10] = endpoint: mean survival time, dose: 400.0 mg/kg/injection, schedule: Q01DX001 (ip), vehicle: saline
[11] = endpoint: mean survival time, dose: 200.0 mg/kg/injection, schedule: Q01DX009 (ip), vehicle: saline with Tween-80
[12] = endpoint: mean survival time, dose: 400.0 mg/kg/injection, schedule: Q01DX009 (ip), vehicle: saline with Tween-80
[13] = endpoint: mean survival time, dose: 12.5 mg/kg/injection, schedule: Q01DX009 (ip), vehicle: saline with Tween-80
[14] = endpoint: mean survival time, dose: 25.0 mg/kg/injection, schedule: Q01DX009 (ip), vehicle: saline with Tween-80
[15] = endpoint: mean survival time, dose: 50.0 mg/kg/injection, schedule: Q04DX003 (ip), vehicle: saline with Tween-80

For `O=C(O)C(=O)O.[NH-]CC(O)CN(CC(O)CO)c1ccccc1.[Pt+2]` (stereo not given), the T/C (endpoint: median survival time, dose: 10.0 mg/kg/injection, schedule: Q04DX003 (ip), vehicle: distilled water + Tween-80) was 100 % of control, the T/C (endpoint: median survival time, dose: 20.0 mg/kg/injection, schedule: Q04DX003 (ip), vehicle: distilled water + Tween-80) was 98 % of control and the T/C (endpoint: median survival time, dose: 40.0 mg/kg/injection, schedule: Q04DX003 (ip), vehicle: distilled water + Tween-80) was 101 % of control. For the same molecule, the T/C (endpoint: median survival time, dose: 80.0 mg/kg/injection, schedule: Q04DX003 (ip), vehicle: distilled water + Tween-80) was 102 % of control.
In the case of `CC1(C)CC(=O)C=C(N2CCC(CCCC3CCN(C4=CC(=O)CC(C)(C)C4)CC3)CC2)C1`, the T/C [1] is reported as 102 % of control, the T/C [2] is reported as 100 % of control and the T/C [3] is reported as 95 % of control. For the same molecule, the T/C [4] was 93 % of control.
`O=C(NNC1CCCCC1)c1ccccc1` was tested, and the T/C (endpoint: mean survival time, dose: 100.0 mg/kg/injection, schedule: Q01DX009 (ip), vehicle: acetone) was 103 % of control.
`Nc1nc(N)c2c(n1)NCN(CCc1cccc(Cl)c1)C2` was tested, and the T/C (endpoint: mean survival time, dose: 0.75 mg/kg/injection, schedule: Q01DX009 (ip), vehicle: distilled water + Tween-80) was 96 % of control, the T/C (endpoint: mean survival time, dose: 1.5 mg/kg/injection, schedule: Q01DX009 (ip), vehicle: distilled water + Tween-80) was 100 % of control and the T/C (endpoint: mean survival time, dose: 3.0 mg/kg/injection, schedule: Q01DX009 (ip), vehicle: distilled water + Tween-80) was 98 % of control. For the same molecule, the T/C (endpoint: mean survival time, dose: 6.0 mg/kg/injection, schedule: Q01DX009 (ip), vehicle: distilled water + Tween-80) was 96 % of control, the T/C (endpoint: mean survival time, dose: 12.0 mg/kg/injection, schedule: Q01DX009 (ip), vehicle: distilled water + Tween-80) was 94 % of control and the T/C (endpoint: mean survival time, dose: 24.0 mg/kg/injection, schedule: Q01DX009 (ip), vehicle: distilled water + Tween-80) was 94 % of control.
In the case of `COc1ccc(C(=O)CC(C#N)c2ccc3c(c2)OCO3)cc1OC` (stereo not given), the T/C [5] is reported as 93 % of control, the T/C [6] is reported as 91 % of control and the T/C [7] is reported as 93 % of control.
With `O=C1C=C(O)c2cc(Br)ccc2C1=O` the T/C [8] was 102 % of control, the T/C [9] was 98 % of control and the T/C [10] was 98 % of control.
In the case of `Brc1sc(Br)c(Br)c1Br`, the T/C [2] is reported as 109 % of control, the T/C [3] is reported as 100 % of control and the T/C [4] is reported as 95 % of control. For the same molecule, the T/C [11] was 101 % of control, the T/C (endpoint: mean survival time, dose: 400.0 mg/kg/injection, schedule: Q01DX001 (ip), vehicle: saline with Tween-80) was 102 % of control and the T/C [12] was 101 % of control.
For `CNc1nc(SC)nc2c1cnn2C1OC(CO)C(O)C1O` (stereo not given), the T/C (endpoint: median survival time, dose: 10.75 mg/kg/injection, schedule: Q01DX005 (ip), vehicle: saline with Tween-80) was 103 % of control, the T/C (endpoint: median survival time, dose: 21.5 mg/kg/injection, schedule: Q01DX005 (ip), vehicle: saline with Tween-80) was 97 % of control and the T/C (endpoint: median survival time, dose: 43.0 mg/kg/injection, schedule: Q01DX005 (ip), vehicle: saline with Tween-80) was 107 % of control. The T/C (endpoint: median survival time, dose: 86.0 mg/kg/injection, schedule: Q01DX005 (ip), vehicle: saline with Tween-80) was 100 % of control.
With `CC[n+]1ccc(Nc2ccc(NC(=O)c3ccc(Nc4cc[n+](CC)c5ccc(N)cc45)cc3)cc2)cc1` the T/C (endpoint: mean survival time, dose: 0.25 mg/kg/injection, schedule: Q01DX009 (ip), vehicle: saline) was 109 % of control, the T/C (endpoint: mean survival time, dose: 0.5 mg/kg/injection, schedule: Q01DX009 (ip), vehicle: water) was 153 % of control and the T/C (endpoint: mean survival time, dose: 1.0 mg/kg/injection, schedule: Q01DX009 (ip), vehicle: saline) was 154 % of control. The T/C (endpoint: mean survival time, dose: 1.0 mg/kg/injection, schedule: Q01DX009 (ip), vehicle: water) was 228 % of control, the T/C (endpoint: mean survival time, dose: 2.0 mg/kg/injection, schedule: Q01DX009 (ip), vehicle: saline) was 243 % of control and the T/C (endpoint: mean survival time, dose: 2.0 mg/kg/injection, schedule: Q01DX009 (ip), vehicle: water) was 224 % of control. For the same molecule, the T/C (endpoint: mean survival time, dose: 4.0 mg/kg/injection, schedule: Q01DX009 (ip), vehicle: water) was 115 % of control.
With `Cc1ccc(C(=Nc2ccccc2)N=P(c2ccccc2)(c2ccccc2)c2ccccc2)cc1` the T/C (endpoint: median survival time, dose: 12.5 mg/kg/injection, schedule: Q01DX005 (ip), vehicle: saline with Tween-80) was 102 % of control, the T/C (endpoint: median survival time, dose: 25.0 mg/kg/injection, schedule: Q01DX005 (ip), vehicle: saline with Tween-80) was 105 % of control and the T/C (endpoint: median survival time, dose: 50.0 mg/kg/injection, schedule: Q01DX005 (ip), vehicle: saline with Tween-80) was 105 % of control. The T/C (endpoint: median survival time, dose: 100.0 mg/kg/injection, schedule: Q01DX005 (ip), vehicle: saline with Tween-80) was 91 % of control.
`CC(C)=CC(C)=Nc1ccccc1` was tested, and the T/C [8] was 90 % of control, the T/C (endpoint: mean survival time, dose: 100.0 mg/kg/injection, schedule: Q04DX003 (ip), vehicle: saline) was 102 % of control and the T/C [9] was 96 % of control. For the same molecule, the T/C (endpoint: mean survival time, dose: 200.0 mg/kg/injection, schedule: Q04DX003 (ip), vehicle: saline) was 96 % of control, the T/C [10] was 98 % of control and the T/C (endpoint: mean survival time, dose: 400.0 mg/kg/injection, schedule: Q04DX003 (ip), vehicle: saline) was 104 % of control.
For `CC1CC([NH-])C([NH-])C(C)(C)C1.[Cl][Pt+2][Cl]` (stereo not given), the T/C (endpoint: median survival time, dose: 10.0 mg/kg/injection, schedule: Q04DX003 (ip), vehicle: Klucel (hydroxypropylcellulose) (HPC)) was 117 % of control, the T/C (endpoint: median survival time, dose: 50.0 mg/kg/injection, schedule: Q04DX003 (ip), vehicle: Klucel + Tween-80) was 153 % of control and the T/C (endpoint: median survival time, dose: 100.0 mg/kg/injection, schedule: Q04DX003 (ip), vehicle: Klucel + Tween-80) was 155 % of control.
For `O=C1CSC(=S)N1/N=C/c1ccccc1`, the T/C (endpoint: mean survival time, dose: 100.0 mg/kg/injection, schedule: Q04DX002 (ip), vehicle: saline) was 103 % of control.
With `CCCCN1C(=O)C(=O)N(c2cc(Cl)c(OC)cc2OC)C1=O` the T/C [13] was 103 % of control, the T/C [14] was 88 % of control and the T/C [1] was 93 % of control and 96 % of control.
With `BrC1CCC([Si](c2ccccc2)(c2ccccc2)c2ccccc2)CC1` (stereo not given) the T/C [5] was 87 % of control, the T/C [6] was 93 % of control and the T/C [7] was 93 % of control.
In the case of `Nc1nc2c(ncn2-c2ccc(NC(=O)c3cccc(S(=O)(=O)F)c3)cc2)c(=O)[nH]1`, the T/C (endpoint: mean survival time, dose: 37.5 mg/kg/injection, schedule: Q04DX002 (ip), vehicle: saline with Tween-80) is reported as 90 % of control, the T/C (endpoint: mean survival time, dose: 75.0 mg/kg/injection, schedule: Q04DX002 (ip), vehicle: saline with Tween-80) is reported as 111 % of control and the T/C (endpoint: mean survival time, dose: 150.0 mg/kg/injection, schedule: Q04DX002 (ip), vehicle: saline with Tween-80) is reported as 94 % of control.
For `NC(=O)c1[nH]cnc1/N=N/N(CCF)CCF`, the T/C (endpoint: mean survival time, dose: 8.8 mg/kg/injection, schedule: Q01DX001 (ip), vehicle: other) was 121 % of control and the T/C (endpoint: mean survival time, dose: 30.0 mg/kg/injection, schedule: Q01DX001 (ip), vehicle: other) was 158 % of control.
With `CCOc1cccc(Cl)n1` the T/C [3] was 94 % of control, the T/C [5] was 101 % of control and the T/C [11] was 102 % of control. The T/C [6] was 98 % of control and the T/C [7] was 98 % of control.
With `CCN(CC)CCCC(C)NC(C)CCCN(CC)CC` (stereo not given) the T/C (endpoint: mean survival time, dose: 25.0 mg/kg/injection, schedule: Q01DX009 (ip), vehicle: Klucel (hydroxypropylcellulose) (HPC)) was 95 % of control and the T/C (endpoint: mean survival time, dose: 50.0 mg/kg/injection, schedule: Q01DX009 (ip), vehicle: Klucel (hydroxypropylcellulose) (HPC)) was 95 % of control.
In the case of `O=C1N(CCO)CNC1(c1ccccc1)c1ccccc1`, the T/C [15] is reported as 94 % of control, the T/C [5] is reported as 107 % of control and the T/C [6] is reported as 98 % of control.
`NNc1ccc(-c2ccc(NN)cc2)cc1` was tested, and the T/C [3] was 101 % of control, the T/C [11] was 95 % of control and the T/C [12] was 96 % of control.
`COC(=O)C(CCl)NC(C)=O` (stereo not given) was tested, and the T/C [3] was 96 % of control and 101 % of control, the T/C [11] was 96 % of control and 102 % of control and the T/C [12] was 108 % of control and 98 % of control.
With `CC1CCC(NC2=NCCO2)C(C)C1` (stereo not given) the T/C [13] was 105 % of control, the T/C [14] was 112 % of control and the T/C (endpoint: mean survival time, dose: 25.0 mg/kg/injection, schedule: Q04DX003 (ip), vehicle: saline with Tween-80) was 101 % of control. The T/C [1] was 101 % of control and the T/C [15] was 101 % of control.
In the case of `O=C(N/N=C/c1ccc(Cl)c(Cl)c1)c1ccccc1`, the T/C (endpoint: mean survival time, dose: 100.0 mg/kg/injection, schedule: Q01DX009 (ip), vehicle: Klucel (hydroxypropylcellulose) (HPC)) is reported as 94 % of control, the T/C (endpoint: mean survival time, dose: 100.0 mg/kg/injection, schedule: Q04DX003 (ip), vehicle: Klucel (hydroxypropylcellulose) (HPC)) is reported as 96 % of control and the T/C (endpoint: mean survival time, dose: 200.0 mg/kg/injection, schedule: Q01DX009 (ip), vehicle: Klucel (hydroxypropylcellulose) (HPC)) is reported as 90 % of control. For the same molecule, the T/C (endpoint: mean survival time, dose: 200.0 mg/kg/injection, schedule: Q04DX003 (ip), vehicle: Klucel (hydroxypropylcellulose) (HPC)) was 88 % of control, the T/C (endpoint: mean survival time, dose: 400.0 mg/kg/injection, schedule: Q01DX009 (ip), vehicle: Klucel (hydroxypropylcellulose) (HPC)) was 89 % of control and the T/C (endpoint: mean survival time, dose: 400.0 mg/kg/injection, schedule: Q04DX003 (ip), vehicle: Klucel (hydroxypropylcellulose) (HPC)) was 97 % of control.

Reference: PubChem BioAssay AID256 (DTP/NCI, 2004)
